The source of these data is doi:10.1101/2025.10.23.684218v2, “Development of a dual chemical probe for the USP16 and HDAC6 zinc-finger ubiquitin-binding domain” (biorxiv, 2025).

For experiment [1], the target named is USP16-UBD (USP16 8-185) (Homo sapiens, UniProt Q9Y5T5). Kind of experiment: ITC. Format: binding.
Experiment [2] addresses T1, NanoLuc-tagged HDAC6 (Homo sapiens, UniProt Q9UBN7).
T1 construct: N-terminal NanoLuc fusion in HEK293T
T1 sequence (Q9UBN7 1-1215): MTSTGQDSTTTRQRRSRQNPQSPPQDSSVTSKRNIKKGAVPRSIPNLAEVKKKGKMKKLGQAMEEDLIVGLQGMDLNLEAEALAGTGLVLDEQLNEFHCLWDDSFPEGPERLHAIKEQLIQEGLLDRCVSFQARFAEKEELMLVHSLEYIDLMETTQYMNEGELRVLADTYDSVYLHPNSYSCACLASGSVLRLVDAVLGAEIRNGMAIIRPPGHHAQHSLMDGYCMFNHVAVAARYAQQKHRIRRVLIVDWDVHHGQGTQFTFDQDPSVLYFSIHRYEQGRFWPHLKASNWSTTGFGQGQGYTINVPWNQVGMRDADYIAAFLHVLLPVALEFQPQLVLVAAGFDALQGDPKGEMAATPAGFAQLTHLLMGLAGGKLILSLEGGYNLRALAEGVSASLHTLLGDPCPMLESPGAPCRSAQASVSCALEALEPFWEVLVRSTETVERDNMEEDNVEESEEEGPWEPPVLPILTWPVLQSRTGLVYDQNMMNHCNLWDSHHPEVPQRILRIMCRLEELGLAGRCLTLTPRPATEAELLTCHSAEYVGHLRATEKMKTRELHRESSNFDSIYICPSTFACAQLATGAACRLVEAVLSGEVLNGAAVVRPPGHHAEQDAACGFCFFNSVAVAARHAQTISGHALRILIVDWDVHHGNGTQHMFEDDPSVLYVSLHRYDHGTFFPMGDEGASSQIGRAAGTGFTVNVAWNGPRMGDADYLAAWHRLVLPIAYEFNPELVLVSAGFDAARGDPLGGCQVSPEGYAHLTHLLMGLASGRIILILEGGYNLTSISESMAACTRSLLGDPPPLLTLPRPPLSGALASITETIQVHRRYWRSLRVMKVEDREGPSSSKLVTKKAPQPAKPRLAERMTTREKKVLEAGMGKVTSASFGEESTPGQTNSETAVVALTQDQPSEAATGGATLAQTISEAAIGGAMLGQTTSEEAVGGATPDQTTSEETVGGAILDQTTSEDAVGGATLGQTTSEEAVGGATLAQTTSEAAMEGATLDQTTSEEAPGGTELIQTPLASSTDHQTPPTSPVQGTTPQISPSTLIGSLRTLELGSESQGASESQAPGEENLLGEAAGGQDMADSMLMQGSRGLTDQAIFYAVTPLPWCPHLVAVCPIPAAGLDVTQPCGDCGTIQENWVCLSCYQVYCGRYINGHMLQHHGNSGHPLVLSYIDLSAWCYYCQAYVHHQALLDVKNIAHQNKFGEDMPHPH
Briefly: NanoBRET displacement of HaloTag-ISG15. Type of experiment: cell-based. For orientation: In BRET a luciferase serves as donor, and the signal depends on an acceptor being close.

The target in experiment [3] is T2, USP16-UBD (USP16 25-185) (Homo sapiens, UniProt Q9Y5T5). Kind of experiment: SPR, steady state. Format: binding. On the technique in general: In SPR one partner is held on a chip, and binding of the other changes the refractive index at the surface.
In experiment [4] the target is T3, USP51 (Homo sapiens, UniProt Q70EK9).
T3 construct: UBD, residues 176-305
T3 sequence (Q70EK9 1-711): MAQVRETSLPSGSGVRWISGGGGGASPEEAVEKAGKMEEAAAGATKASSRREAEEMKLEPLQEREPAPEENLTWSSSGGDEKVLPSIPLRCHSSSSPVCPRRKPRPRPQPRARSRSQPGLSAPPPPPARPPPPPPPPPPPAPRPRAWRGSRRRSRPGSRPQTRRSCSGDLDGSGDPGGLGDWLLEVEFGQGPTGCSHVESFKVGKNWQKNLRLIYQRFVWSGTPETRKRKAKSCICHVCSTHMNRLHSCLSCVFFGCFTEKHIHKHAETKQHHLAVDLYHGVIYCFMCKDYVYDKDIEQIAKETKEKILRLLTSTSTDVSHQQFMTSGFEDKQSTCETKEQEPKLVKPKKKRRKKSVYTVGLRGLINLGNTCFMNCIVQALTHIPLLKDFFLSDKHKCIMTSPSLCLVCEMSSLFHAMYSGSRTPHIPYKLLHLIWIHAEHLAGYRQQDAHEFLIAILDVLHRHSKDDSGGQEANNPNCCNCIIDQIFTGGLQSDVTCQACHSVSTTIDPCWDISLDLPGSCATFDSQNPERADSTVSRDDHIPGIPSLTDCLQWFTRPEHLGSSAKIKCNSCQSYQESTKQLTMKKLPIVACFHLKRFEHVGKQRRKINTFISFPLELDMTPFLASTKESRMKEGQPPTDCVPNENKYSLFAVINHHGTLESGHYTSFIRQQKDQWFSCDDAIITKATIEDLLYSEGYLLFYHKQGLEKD
Kind of experiment: biochemical. On the set-up: SPR, steady-state binding to immobilised biotinylated UBD proteins.

Experiment [5] addresses T4, USP16-FL (USP16 1-823) (Homo sapiens, UniProt Q9Y5T5).
T4 construct: full length 1-823, pFBOH-LIC, Sf9 baculovirus, Ni-NTA and MonoQ
Kind of experiment: ubiquitin-rhodamine110 DUB assay. Type of experiment: biochemical. Particulars: […] ubiquitin-rhodamine-[…] enzyme, pH […], up to […] compound.

Experiment [6] concerns the target T5, NanoLuc-tagged USP16 (Homo sapiens, UniProt Q9Y5T5).
T5 construct: N-terminal NanoLuc fusion in HEK293T
Kind of experiment: NanoBRET displacement of HaloTag-ISG15. Particulars: HEK293T cells, […]. Format: cell-based.

The target in experiment [7] is T1, NanoLuc-tagged HDAC6. Kind of experiment: NanoBRET displacement of HaloTag-ISG15. Type of experiment: cell-based. Particulars: HEK293T cells, […].
For experiment [8], the target named is T2, USP16-UBD (USP16 25-185). Briefly: biochemical. On the set-up: SPR, steady-state binding to immobilised biotinylated UBD proteins. Particulars: read-out: Negative Control KD (nM) SGC-UBD1031N.

Where two headings read alike, the source gives them in different places. Bounds are passed on as bounds.

T2 sequence (Q9Y5T5 25-185): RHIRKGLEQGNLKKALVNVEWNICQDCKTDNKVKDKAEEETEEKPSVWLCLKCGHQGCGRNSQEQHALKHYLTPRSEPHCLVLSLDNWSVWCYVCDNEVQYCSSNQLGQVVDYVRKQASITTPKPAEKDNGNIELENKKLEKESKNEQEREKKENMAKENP
Sequence of USP16-UBD (USP16 8-185) (Q9Y5T5 8-185): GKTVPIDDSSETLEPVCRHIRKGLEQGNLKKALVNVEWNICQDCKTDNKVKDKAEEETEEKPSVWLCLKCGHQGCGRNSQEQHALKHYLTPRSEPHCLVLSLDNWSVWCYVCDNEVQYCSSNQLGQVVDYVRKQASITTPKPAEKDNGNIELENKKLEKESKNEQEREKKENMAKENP
T5 sequence (Q9Y5T5 whole entry, the tested form may be a part): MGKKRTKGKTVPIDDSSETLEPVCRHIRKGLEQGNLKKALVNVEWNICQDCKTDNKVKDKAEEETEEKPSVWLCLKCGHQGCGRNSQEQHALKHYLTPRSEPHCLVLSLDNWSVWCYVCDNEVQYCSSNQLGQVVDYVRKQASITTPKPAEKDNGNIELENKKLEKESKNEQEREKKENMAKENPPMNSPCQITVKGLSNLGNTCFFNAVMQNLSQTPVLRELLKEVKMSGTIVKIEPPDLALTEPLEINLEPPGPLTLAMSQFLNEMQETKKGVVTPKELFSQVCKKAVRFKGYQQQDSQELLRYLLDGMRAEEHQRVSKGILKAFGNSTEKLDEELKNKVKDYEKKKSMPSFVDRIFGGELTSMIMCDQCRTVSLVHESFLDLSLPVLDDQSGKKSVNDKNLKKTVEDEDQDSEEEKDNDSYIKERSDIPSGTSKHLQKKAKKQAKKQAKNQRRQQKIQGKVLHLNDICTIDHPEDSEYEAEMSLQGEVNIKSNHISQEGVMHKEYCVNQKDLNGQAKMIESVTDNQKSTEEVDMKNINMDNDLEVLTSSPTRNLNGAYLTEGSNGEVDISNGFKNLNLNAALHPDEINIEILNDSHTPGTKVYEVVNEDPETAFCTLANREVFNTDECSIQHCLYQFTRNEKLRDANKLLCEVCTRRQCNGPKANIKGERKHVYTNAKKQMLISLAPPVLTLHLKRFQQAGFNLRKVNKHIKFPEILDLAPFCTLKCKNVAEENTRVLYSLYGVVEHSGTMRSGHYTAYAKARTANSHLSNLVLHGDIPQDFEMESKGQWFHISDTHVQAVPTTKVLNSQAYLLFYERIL
T4 sequence (Q9Y5T5 whole entry): as the sequence (Q9Y5T5 whole entry, the tested form may be a part) above

With `C[C@H](NC(=O)Cn1c(CCC(=O)O)nc2c(Cl)cccc2c1=O)c1c(F)cccc1F` [compound 15, (S)-3-(8-chloro-3-(2-((1-(2,6-difluorophenyl)ethyl)amino)-2-oxoethyl)-4-oxo-3,4-dihydroquinazolin-2-yl)propanoic acid], the Kd in experiment [1] is 0.05 µM; in experiment [3] it was 0.048 µM; in experiment [4] (read-out: Probe KD (nM) SGC-UBD1031), > 10000 nM. Further, in experiment [2], the half-inhibitory concentration (IC50) turned out to be 1.5 ± 0.2 µM.
Consider `C[C@@H](NC(=O)Cn1c(CCC(=O)O)nc2c(Cl)cccc2c1=O)c1c(F)cccc1F` [compound 16, (R)-3-(8-chloro-3-(2-((1-(2,6-difluorophenyl)ethyl)amino)-2-oxoethyl)-4-oxo-3,4-dihydroquinazolin-2-yl)propanoic acid], for which the “ubiquitin-rhodamine110 DUB assay” value in experiment [5] is given as “the negative control shows no inhibition of DUB activity”. Further, the “NanoBRET displacement of HaloTag-ISG15” value is “SGC-UBD1031N did not inhibit the interaction of HDAC6 or USP16 and ISG15” in experiment [6]; “SGC-UBD1031N did not inhibit the interaction of HDAC6 or USP16 and ISG15” in experiment [7]. In addition, the Kd in experiment [8] was 1770 ± 300 nM; in experiment [4] (read-out: Negative Control KD (nM) SGC-UBD1031N), > 10000 nM.

As a reminder, the Kd is the constant that tells how readily two partners part at equilibrium. The IC50 is the point on the concentration scale where inhibition reaches its midpoint.
